{
  "source": "paper PMC9005681",
  "about": "“Use of AD Informer Set compounds to explore validity of novel targets in Alzheimer's disease pathology” (Alzheimer's & Dementia : Translational Research & Clinical …, 2022)",
  "experiment_in_all_cases": "PDSP GPCR panel primary binding assays at 10 μM",
  "key": {"[1]": {"molecular_target": "T1, cloned human or rodent CNS receptors, channels, and transporters (PDSP panel) (Homo sapiens, UniProt P08172)", "T1 construct": "expressed in transfected cells", "T1 sequence (P08172 1-466)": "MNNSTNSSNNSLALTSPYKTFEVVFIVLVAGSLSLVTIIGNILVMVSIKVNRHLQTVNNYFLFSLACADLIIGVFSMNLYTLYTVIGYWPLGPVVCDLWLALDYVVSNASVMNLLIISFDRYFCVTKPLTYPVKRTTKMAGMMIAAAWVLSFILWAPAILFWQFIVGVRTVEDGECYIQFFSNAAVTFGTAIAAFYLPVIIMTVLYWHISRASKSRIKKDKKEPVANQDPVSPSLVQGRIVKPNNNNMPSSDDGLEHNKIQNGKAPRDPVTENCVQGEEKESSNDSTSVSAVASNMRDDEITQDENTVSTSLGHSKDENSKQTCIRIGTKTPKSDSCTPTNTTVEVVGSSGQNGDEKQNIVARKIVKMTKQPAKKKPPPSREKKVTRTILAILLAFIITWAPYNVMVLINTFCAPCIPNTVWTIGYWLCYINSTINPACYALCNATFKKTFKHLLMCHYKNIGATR", "details": "Receptor M2, primary assay, 10 μM", "in_short": "(§1)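 Each compound is first screened once at 10 μM, in quadruplicate, for radioligand displacement. Where mean displacement passes 50%, an 11-point dose-response in triplicate follows at that target, except at H3, PBR and GABAA.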"}, "[2]": {"molecular_target": "T2, cloned human or rodent CNS receptors, channels, and transporters (PDSP panel) (Homo sapiens, UniProt P08912)", "T2 construct": "expressed in transfected cells", "T2 sequence (P08912 1-532)": "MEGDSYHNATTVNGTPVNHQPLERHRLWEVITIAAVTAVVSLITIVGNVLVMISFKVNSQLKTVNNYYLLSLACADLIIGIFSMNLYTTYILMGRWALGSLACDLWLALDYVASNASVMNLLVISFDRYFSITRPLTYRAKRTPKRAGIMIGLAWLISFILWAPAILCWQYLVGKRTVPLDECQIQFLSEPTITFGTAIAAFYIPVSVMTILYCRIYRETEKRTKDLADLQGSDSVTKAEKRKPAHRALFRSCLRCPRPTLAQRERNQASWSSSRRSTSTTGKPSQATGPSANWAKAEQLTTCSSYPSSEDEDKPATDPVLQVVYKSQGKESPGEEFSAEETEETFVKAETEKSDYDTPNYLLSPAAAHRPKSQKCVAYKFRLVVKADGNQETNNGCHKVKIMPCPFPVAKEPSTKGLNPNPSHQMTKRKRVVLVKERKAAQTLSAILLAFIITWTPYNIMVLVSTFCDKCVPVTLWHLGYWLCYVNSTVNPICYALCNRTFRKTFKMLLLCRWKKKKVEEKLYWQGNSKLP", "details": "Receptor M5, primary assay, 10 μM", "in_short": "as §1"}, "[3]": {"molecular_target": "T3, cloned human or rodent CNS receptors, channels, and transporters (PDSP panel) (Homo sapiens, UniProt P35367)", "T3 construct": "expressed in transfected cells", "T3 sequence (P35367 whole entry)": "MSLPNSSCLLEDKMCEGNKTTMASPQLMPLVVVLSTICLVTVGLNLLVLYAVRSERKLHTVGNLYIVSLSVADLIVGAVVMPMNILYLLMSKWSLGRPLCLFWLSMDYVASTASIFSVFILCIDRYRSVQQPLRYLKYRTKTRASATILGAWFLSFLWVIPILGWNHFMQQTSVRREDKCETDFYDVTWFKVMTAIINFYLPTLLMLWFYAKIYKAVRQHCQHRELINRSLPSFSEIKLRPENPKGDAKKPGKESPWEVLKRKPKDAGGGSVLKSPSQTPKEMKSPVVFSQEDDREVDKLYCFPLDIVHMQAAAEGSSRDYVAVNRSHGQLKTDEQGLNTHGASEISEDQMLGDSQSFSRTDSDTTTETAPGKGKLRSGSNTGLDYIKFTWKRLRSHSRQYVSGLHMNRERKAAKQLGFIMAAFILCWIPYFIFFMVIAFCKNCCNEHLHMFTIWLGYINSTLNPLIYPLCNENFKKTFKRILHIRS", "details": "Receptor H1, primary assay, 10 μM", "in_short": "as §1"}, "[4]": {"tested_on": "cloned human or rodent CNS receptors, channels, and transporters (PDSP panel)", "details": "10 μM; for Inhibition 1 / Inhibition 2 / Inhibition 3 / Inhibition 4 / Mean %: primary assay; for Mean %: mean of Inhibition 1-4", "in_short": "as §1"}, "[5]": {"molecular_target": "T4, cloned human or rodent CNS receptors, channels, and transporters (PDSP panel) (Homo sapiens, UniProt P23975)", "T4 construct": "expressed in transfected cells", "T4 sequence (P23975 whole entry)": "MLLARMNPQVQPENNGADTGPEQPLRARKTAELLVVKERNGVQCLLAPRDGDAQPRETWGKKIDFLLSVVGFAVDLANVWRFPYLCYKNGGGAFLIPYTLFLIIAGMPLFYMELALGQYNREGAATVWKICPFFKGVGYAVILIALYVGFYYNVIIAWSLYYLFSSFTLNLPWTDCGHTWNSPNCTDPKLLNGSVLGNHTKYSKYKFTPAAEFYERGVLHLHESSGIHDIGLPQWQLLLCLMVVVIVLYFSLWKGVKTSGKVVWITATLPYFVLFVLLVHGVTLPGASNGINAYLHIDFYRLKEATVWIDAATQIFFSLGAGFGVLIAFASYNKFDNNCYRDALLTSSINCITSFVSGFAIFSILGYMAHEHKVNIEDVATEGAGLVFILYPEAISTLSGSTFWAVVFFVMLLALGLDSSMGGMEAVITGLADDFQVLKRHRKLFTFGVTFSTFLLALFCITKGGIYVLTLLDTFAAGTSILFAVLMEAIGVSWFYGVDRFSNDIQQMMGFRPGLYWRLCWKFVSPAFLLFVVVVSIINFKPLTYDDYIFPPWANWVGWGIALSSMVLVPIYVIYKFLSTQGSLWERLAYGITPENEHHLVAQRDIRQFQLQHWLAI", "details": "Receptor NET, primary assay, 10 μM", "in_short": "as §1"}, "[6]": {"molecular_target": "T5, cloned human or rodent CNS receptors, channels, and transporters (PDSP panel) (Homo sapiens, UniProt P41595)", "T5 construct": "expressed in transfected cells", "T5 sequence (P41595 whole entry)": "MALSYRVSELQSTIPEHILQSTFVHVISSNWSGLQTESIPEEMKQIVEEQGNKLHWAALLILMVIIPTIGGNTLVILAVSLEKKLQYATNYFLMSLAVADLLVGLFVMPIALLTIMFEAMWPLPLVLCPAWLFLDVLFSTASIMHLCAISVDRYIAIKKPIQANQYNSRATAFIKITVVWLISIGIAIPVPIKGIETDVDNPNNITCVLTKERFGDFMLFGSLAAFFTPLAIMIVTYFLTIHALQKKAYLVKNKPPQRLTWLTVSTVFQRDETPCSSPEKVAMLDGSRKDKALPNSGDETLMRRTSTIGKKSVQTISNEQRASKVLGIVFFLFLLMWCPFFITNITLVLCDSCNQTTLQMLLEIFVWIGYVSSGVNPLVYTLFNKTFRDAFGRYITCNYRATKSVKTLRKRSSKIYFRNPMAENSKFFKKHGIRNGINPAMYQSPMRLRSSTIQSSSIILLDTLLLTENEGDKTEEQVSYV", "details": "Receptor 5-HT2B, primary assay, 10 μM", "in_short": "as §1"}, "[7]": {"molecular_target": "T6, cloned human or rodent CNS receptors, channels, and transporters (PDSP panel) (Homo sapiens, UniProt Q01959)", "T6 construct": "expressed in transfected cells", "T6 sequence (Q01959 whole entry)": "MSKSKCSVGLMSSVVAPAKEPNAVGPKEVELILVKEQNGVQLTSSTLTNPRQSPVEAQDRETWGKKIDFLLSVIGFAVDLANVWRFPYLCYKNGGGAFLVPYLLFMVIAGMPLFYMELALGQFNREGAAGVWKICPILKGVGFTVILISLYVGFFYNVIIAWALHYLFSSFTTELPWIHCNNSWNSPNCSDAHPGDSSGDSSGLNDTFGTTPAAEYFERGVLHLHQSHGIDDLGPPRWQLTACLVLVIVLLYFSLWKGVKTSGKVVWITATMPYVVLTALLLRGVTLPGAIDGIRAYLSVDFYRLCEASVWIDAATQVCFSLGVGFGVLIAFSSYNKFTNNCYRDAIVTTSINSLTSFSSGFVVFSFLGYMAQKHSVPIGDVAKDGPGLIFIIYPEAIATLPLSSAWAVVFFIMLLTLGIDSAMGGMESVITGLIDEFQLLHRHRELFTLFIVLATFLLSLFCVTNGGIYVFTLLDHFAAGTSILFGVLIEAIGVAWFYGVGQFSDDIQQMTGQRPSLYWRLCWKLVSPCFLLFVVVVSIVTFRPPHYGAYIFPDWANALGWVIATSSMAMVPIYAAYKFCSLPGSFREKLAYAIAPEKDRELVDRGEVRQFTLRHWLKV", "details": "Receptor DAT, primary assay, 10 μM", "in_short": "as §1"}},
  "note": "Values joined by “and” are separate entries in the source; they are usually repeats but may differ in a detail not shown here. Equal values may be shown once.",
  "data": [
    {"smiles": "Cl.NC(=O)c1cnc(N[C@@H]2CCCC[C@@H]2N)nc1Nc1cccc(-n2nccn2)c1", "note": "[UNC10302682A, P505-15 (PRT06207 HCl)]", "values": [
      {"measurement": "Inhibition 1", "setting": "[1]", "value": -1.69, "unit": "%"},
      {"measurement": "Inhibition 2", "setting": "[1]", "value": 2.24, "unit": "%"},
      {"measurement": "Inhibition 3", "setting": "[1]", "value": -4.88, "unit": "%"},
      {"measurement": "Inhibition 4", "setting": "[1]", "value": 1.51, "unit": "%"},
      {"measurement": "Mean %", "setting": "[1]; mean of Inhibition 1-4", "value": -0.71, "unit": "%"},
      {"measurement": "Inhibition 1", "setting": "[2]", "value": 25.92, "unit": "%"},
      {"measurement": "Inhibition 2", "setting": "[2]", "value": 13.95, "unit": "%"},
      {"measurement": "Inhibition 3", "setting": "[2]", "value": 6.2, "unit": "%"},
      {"measurement": "Inhibition 4", "setting": "[2]", "value": -1.55, "unit": "%"},
      {"measurement": "Mean %", "setting": "[2]; mean of Inhibition 1-4", "value": 11.13, "unit": "%"},
      {"measurement": "Inhibition 1", "setting": "[3]", "value": 100.99, "unit": "%"},
      {"measurement": "Inhibition 2", "setting": "[3]", "value": 95.9, "unit": "%"},
      {"measurement": "Inhibition 3", "setting": "[3]", "value": 86.08, "unit": "%"},
      {"measurement": "Inhibition 4", "setting": "[3]", "value": 60.28, "unit": "%"},
      {"measurement": "Mean %", "setting": "[3]; mean of Inhibition 1-4", "value": 85.81, "unit": "%"},
      {"measurement": "Affinity for receptors in primary assays", "setting": "[4]; 46-47 primary binding assays", "value": "possessed affinity for the most receptors in primary assays"},
      {"measurement": "Inhibition 1", "setting": "[4]; Receptor Alpha1A", "value": 22.91, "unit": "%"},
      {"measurement": "Inhibition 2", "setting": "[4]; Receptor Alpha1A", "value": 19.17, "unit": "%"},
      {"measurement": "Inhibition 3", "setting": "[4]; Receptor Alpha1A", "value": 28.52, "unit": "%"},
      {"measurement": "Inhibition 4", "setting": "[4]; Receptor Alpha1A", "value": 1.22, "unit": "%"},
      {"measurement": "Mean %", "setting": "[4]; Receptor Alpha1A", "value": 17.96, "unit": "%"},
      {"measurement": "Inhibition 1", "setting": "[4]; Receptor Alpha2A", "value": 21.38, "unit": "%"},
      {"measurement": "Inhibition 2", "setting": "[4]; Receptor Alpha2A", "value": 23.31, "unit": "%"},
      {"measurement": "Inhibition 3", "setting": "[4]; Receptor Alpha2A", "value": 19.6, "unit": "%"},
      {"measurement": "Inhibition 4", "setting": "[4]; Receptor Alpha2A", "value": 16.75, "unit": "%"},
      {"measurement": "Mean %", "setting": "[4]; Receptor Alpha2A", "value": 20.26, "unit": "%"},
      {"measurement": "Inhibition 1", "setting": "[4]; Receptor Alpha2C", "value": 22.11, "unit": "%"},
      {"measurement": "Inhibition 2", "setting": "[4]; Receptor Alpha2C", "value": 17.82, "unit": "%"},
      {"measurement": "Inhibition 3", "setting": "[4]; Receptor Alpha2C", "value": 14.79, "unit": "%"},
      {"measurement": "Inhibition 4", "setting": "[4]; Receptor Alpha2C", "value": 26.53, "unit": "%"},
      {"measurement": "Mean %", "setting": "[4]; Receptor Alpha2C", "value": 20.31, "unit": "%"},
      {"measurement": "Inhibition 1", "setting": "[4]; Receptor BZP Rat Brain Site", "value": 6.42, "unit": "%"},
      {"measurement": "Inhibition 2", "setting": "[4]; Receptor BZP Rat Brain Site", "value": 10.02, "unit": "%"},
      {"measurement": "Inhibition 3", "setting": "[4]; Receptor BZP Rat Brain Site", "value": 1.11, "unit": "%"},
      {"measurement": "Inhibition 4", "setting": "[4]; Receptor BZP Rat Brain Site", "value": 13.06, "unit": "%"},
      {"measurement": "Mean %", "setting": "[4]; Receptor BZP Rat Brain Site", "value": 7.65, "unit": "%"},
      {"measurement": "Inhibition 1", "setting": "[4]; Receptor DOR", "value": -18.41, "unit": "%"},
      {"measurement": "Inhibition 2", "setting": "[4]; Receptor DOR", "value": -4.86, "unit": "%"},
      {"measurement": "Inhibition 3", "setting": "[4]; Receptor DOR", "value": 0.02, "unit": "%"},
      {"measurement": "Inhibition 4", "setting": "[4]; Receptor DOR", "value": 6.53, "unit": "%"},
      {"measurement": "Mean %", "setting": "[4]; Receptor DOR", "value": -4.18, "unit": "%"},
      {"measurement": "Inhibition 1", "setting": "[4]; Receptor H3", "value": 29.95, "unit": "%"},
      {"measurement": "Inhibition 2", "setting": "[4]; Receptor H3", "value": 45.1, "unit": "%"},
      {"measurement": "Inhibition 3", "setting": "[4]; Receptor H3", "value": 59.09, "unit": "%"},
      {"measurement": "Inhibition 4", "setting": "[4]; Receptor H3", "value": 65.79, "unit": "%"},
      {"measurement": "Mean %", "setting": "[4]; Receptor H3", "value": 49.98, "unit": "%"},
      {"measurement": "Inhibition 1", "setting": "[4]; Receptor H4", "value": 11.34, "unit": "%"},
      {"measurement": "Inhibition 2", "setting": "[4]; Receptor H4", "value": 13.02, "unit": "%"},
      {"measurement": "Inhibition 3", "setting": "[4]; Receptor H4", "value": 28.62, "unit": "%"},
      {"measurement": "Inhibition 4", "setting": "[4]; Receptor H4", "value": 77.11, "unit": "%"},
      {"measurement": "Mean %", "setting": "[4]; Receptor H4", "value": 32.52, "unit": "%"},
      {"measurement": "Inhibition 1", "setting": "[4]; Receptor Sigma 1", "value": 15.02, "unit": "%"},
      {"measurement": "Inhibition 2", "setting": "[4]; Receptor Sigma 1", "value": 35.34, "unit": "%"},
      {"measurement": "Inhibition 3", "setting": "[4]; Receptor Sigma 1", "value": 14.82, "unit": "%"},
      {"measurement": "Inhibition 4", "setting": "[4]; Receptor Sigma 1", "value": 27.31, "unit": "%"},
      {"measurement": "Mean %", "setting": "[4]; Receptor Sigma 1", "value": 23.12, "unit": "%"},
      {"measurement": "Inhibition 1", "setting": "[4]; Receptor Sigma 2", "value": 57.01, "unit": "%"},
      {"measurement": "Inhibition 2", "setting": "[4]; Receptor Sigma 2", "value": 56.94, "unit": "%"},
      {"measurement": "Inhibition 3", "setting": "[4]; Receptor Sigma 2", "value": 67.96, "unit": "%"},
      {"measurement": "Inhibition 4", "setting": "[4]; Receptor Sigma 2", "value": 81.11, "unit": "%"},
      {"measurement": "Mean %", "setting": "[4]; Receptor Sigma 2", "value": 65.76, "unit": "%"},
      {"measurement": "Inhibition 1", "setting": "[5]", "value": "84.07% and 84.11%"},
      {"measurement": "Inhibition 2", "setting": "[5]", "value": "85.74% and 79.57%"},
      {"measurement": "Inhibition 3", "setting": "[5]", "value": "83.91% and 77.54%"},
      {"measurement": "Inhibition 4", "setting": "[5]", "value": 89.74, "unit": "%"},
      {"measurement": "Mean %", "setting": "[5]; mean of Inhibition 1-4", "value": "85.87% and 80.58%"},
      {"measurement": "Inhibition 1", "setting": "[6]", "value": 19.24, "unit": "%"},
      {"measurement": "Inhibition 2", "setting": "[6]", "value": 3.3, "unit": "%"},
      {"measurement": "Inhibition 3", "setting": "[6]", "value": -9.28, "unit": "%"},
      {"measurement": "Inhibition 4", "setting": "[6]", "value": -13.48, "unit": "%"},
      {"measurement": "Mean %", "setting": "[6]; mean of Inhibition 1-4", "value": -0.06, "unit": "%"},
      {"measurement": "Inhibition 1", "setting": "[7]", "value": 65.15, "unit": "%"},
      {"measurement": "Inhibition 2", "setting": "[7]", "value": 70.33, "unit": "%"},
      {"measurement": "Inhibition 3", "setting": "[7]", "value": 66.98, "unit": "%"},
      {"measurement": "Inhibition 4", "setting": "[7]", "value": 72.6, "unit": "%"},
      {"measurement": "Mean %", "setting": "[7]; mean of Inhibition 1-4", "value": 68.77, "unit": "%"}
    ]}
  ]
}
